Source: patent publication EP0656355A1, “BIPHENYLMETHANE DERIVATIVE AND MEDICINE CONTAINING THE SAME” (WAKUNAGA SEIYAKU KABUSHIKI KAISHA, priority 1992, dated 1994)

How the values were obtained:
[1] = test system: angiotensin II contraction in longitudinal ileac muscles; experiment: Inhibitory activity to angiotensin II contraction in longitudinal ileac muscles excised from a guinea pig; assay type: cell-based, Hartley male guinea pig; settings: Cavia porcellus, 20 min; 50% contraction inhibition concentration; 10⁻⁸M angiotensin II; test compound reacted for 20 minutes; guinea pig ileum longitudinal muscle; read-out: IC₅₀
Description: (2) Inhibitory activity to angiotensin II contraction in longitudinal ileac muscles excised from a guinea pig
A Hartley male guinea pig (350-450 g in weight) was sacrificed under exsanguination, followed by the excision of its ileum.
A longitudinal muscle tissue (2 cm long) was prepared from the ileum in a manner known per se in the art. The sample was suspended in a 20-mℓ Magnus cylinder filled with a Tylode solution [composition (mM): NaCℓ 137, KCℓ 2.7, CaCℓ₂ 1.88, MgCℓ₂ 1.1, NaH₂PO₄ 0.4, NaH₂CO₃ 11.8 and glucose 5.6). The Tylode solution was incubated at 37°C and saturated with a mixed gas consisting of 95% O₂ + 5% CO₂. Using an isometric transducer ("TB-611T", manufactured by Nihon Kohden Corporation), variations in contraction were measured. The measurement results were recorded on a computer ("PC-9801", manufactured by NEC Corporation).
Under a load of 0.5 g initial tension, the longitudinal muscle sample was equilibrated in a nutrient solution for about one hour while being washed therewith at intervals of 15 minutes. Then, contracture by the administration of 80 mM of KCℓ was repeated twice. After conforming that the contraction occurred stably, the following test was conducted.
First, 10^-8M angiotensin II was administered to the sample and its maximum contraction was recorded. The test compound was then administered to the sample and they were reacted for 20 minutes. Administered again was 10⁻⁸M angiotensin II and the maximum contraction was measured. […] This test was repeated at increased concentrations of the test compound. A 50% contraction inhibition concentration (IC₅₀) was determined in accordance with a linear regressive calculation of the contraction inhibition rates.

renal hypertensive rats [2] = experiment: Antihypertensive action on renal hypertensive rats (non-invasive); assay type: in vivo, male SD rat; settings: decreased rate of systolic blood pressure; orally administered at 10 mg/kg; non-invasive sphygmomanometer
Excerpt: (3) Antihypertensive action on renal hypertensive rats (non-invasive)
Renal hypertensive rats were each prepared by constricting the left renal artery of a male SD rat (age: 6 weeks old, body weight: 200-220 g) with a silver clip (inner diameter: 0.017 inch) under anesthesia. The rats whose systolic blood pressure arose to 160 mmHg or higher in 4-8 weeks after the constriction of the renal artery were used for the test. The rats were maintained on food and water ad libitum until immediately before the test was started. Each test compound which was suspended in 0.5% methyl cellulose was orally administered at 10 mg/kg. After the administration of the test compound, the systolic blood pressure was measured periodically by a non-invasive sphygmomanometer ("BP-98", manufactured by SOFTLON K.K.). In accordance with the following equation, a decreased rate of blood pressure (%) was calculated from the blood pressure values before and after the administration of the compound. [formula]

renal hypertensive rats [3] = experiment: Antihypertensive action on renal hypertensive rats (invasive); assay type: in vivo, male SD rat; settings: decreased rate of mean blood pressure; orally administered at 3 mg/kg; femoral artery cannula
Excerpt: (4) Antihypertensive action on renal hypertensive rats (invasive)
Renal hypertensive rats were each prepared by constricting the left renal artery of a male SD rat (age: 6 weeks old, body weight: 190-220 g) with a silver clip (inner diameter: 0.017 inch) under anesthesia. Antihypertensive action was studied employing the rats whose mean blood pressure arose to 150 mmHg or higher in 4-8 weeks after the constriction of the renal artery. On the day before the test, a cannula for measure of blood pressure was inserted into the femoral artery of each of the renal hypertensive rats under anesthesia and was allowed to remain in the artery. The rats were maintained on food and water ad libitum until immediately before the test was started. The cannula so inserted was connected to a blood pressure transducer and mean blood pressure was recorded on a polygraph. After the blood pressure became stable, the test compound which was suspended in 0.5% carboxymethyl cellulose was orally administered to each of the rats at 3 mg/kg. In accordance with the following equation, a decreased rate of blood pressure (%) was calculated from the blood pressure values before and after the administration of the test compound. [formula]

[4] = molecular target: T1, angiotensin II (AII) receptor (Rattus norvegicus, UniProt P25095); experiment: Inhibitory action against the binding with angiotensin II (AII) receptor, 125I-AII competition on cultured rat aortic smooth muscle cells; parameters: species or system male Wistar rat; settings: 50% substitution of ¹²⁵I-AII specific binding; ¹²⁵I-AII 2 x 10⁻¹⁰M; one hour at room temperature; rat vascular smooth muscle cells; read-out: IC₅₀
T1 construct: Vascular smooth muscle cells, which had been separated from the aorta of a male Wistar rat and cultured on a 24-well multiplate; endogenous in cells; host or cells: primary cultured vascular smooth muscle cells from the aorta of a male Wistar rat
T1 sequence (P25095 1-359): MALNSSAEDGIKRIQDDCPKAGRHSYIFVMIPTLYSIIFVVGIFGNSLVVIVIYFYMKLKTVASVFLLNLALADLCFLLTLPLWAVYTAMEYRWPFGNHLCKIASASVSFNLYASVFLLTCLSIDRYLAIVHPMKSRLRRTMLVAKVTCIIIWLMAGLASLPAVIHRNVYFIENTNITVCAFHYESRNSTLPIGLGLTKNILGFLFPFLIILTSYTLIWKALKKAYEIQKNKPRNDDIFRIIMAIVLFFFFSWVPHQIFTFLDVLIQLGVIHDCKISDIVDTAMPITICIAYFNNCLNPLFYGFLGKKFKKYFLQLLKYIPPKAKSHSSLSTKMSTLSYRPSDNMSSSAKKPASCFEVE
Description: (1) Inhibitory action against the binding with angiotensin II (AII) receptor, using cultured rat aortic smooth muscle cells The present test was conducted in accordance with the method reported by Chiu et al. in European Journal of Pharmacology, 157, 13-21(1988), though after some modifications. […] To each well, ¹²⁵I-AII (final concentration: 2 x 10⁻¹⁰M) was added together with or without a test compound to give a total volume of 0.2 mℓ. Then the wells were incubated for one hour at room temperature to make the ¹²⁵I-AII and the test compound competitively bind to the vascular smooth muscle cells. Each well was thereafter washed with an ice-cold buffer three times to remove unbound ¹²⁵I-AII. To the cells, 0.2 mℓ of a 1 mol/ℓ solution of sodium hydroxide was added to solubilize the bound ¹²⁵I-AII. A bound amount of ¹²⁵I-AII contained in the resulting cell solution was measured by a gamma counter. The above test was conducted for each compound at different concentrations of 3 doses or more. The inhibition rate against the specific binding with ¹²⁵I-AII at each concentration was calculated in accordance with an equation to be set out subsequently herein.

Compound	IC50 [1] [nM]	Maximum action (%) (renal hypertensive rats [2])	Maximum action (%) (renal hypertensive rats [3])	IC50 [4] [nM]
Cc1nn(Cc2ccc(-c3ccccc3-c3nnn[nH]3)cc2)c(=NC(=O)C2CC2)s1 [Compound No.17, 2-Cyclopropylcarbonylimino-5-methyl-3-[2'-(1H-tetrazol-5-yl)biphenyl-4-yl]methyl-1,3,4-thiadiazoline]	7.5	25.9	–	–
CCc1nn(Cc2ccc(-c3ccccc3-c3nnn[nH]3)cc2)c(=NC(=O)c2ccccc2C(=O)O)s1 [Compound No.126, N-[5-Ethyl-3-[2'-(1H-tetrazol-5-yl)biphenyl-4-yl]methyl-1,3,4-thiadiazoline-2-yliden]phthalamic acid]	–	–	27.6	32
CCc1nn(Cc2ccc(-c3ccccc3-c3nnn[nH]3)cc2)c(=NC(=O)C2=C(C(=O)O)CCC2)s1 [Compound No.130, 2-[[5-Ethyl-3-[2'-(1H-tetrazol-5-yl)biphenyl-4-yl]methyl-1,3,4-thiadiazoline-2-yliden]aminocarbonyl]-1-cyclopenten carboxylic acid]	0.65	–	41.2	–
CCCc1nn(Cc2ccc(-c3ccccc3-c3nnn[nH]3)cc2)c(=NC(=O)C2CC2)s1 [Compound No.21, 2-Cyclopropylcarbonylimino-5-n-propyl-3-[2'-(1H-tetrazol-5-yl)biphenyl-4-yl]methyl-1,3,4-thiadiazoline]	8	26.3	–	–
CCc1nn(Cc2ccc(-c3ccccc3-c3nn[nH]n3)cc2)c(=NC(=O)C2CCCCC2C(=O)O)s1 (racemic) [Compound No.158, cis-2-[[5-Ethyl-3-[2'-(1H-tetrazol-5-yl)biphenyl-4-yl]methyl-1,3,4-thiadiazoline-2-yliden]aminocarbonyl] cyclohxanecarboxylic acid]	0.51	–	38.4	–
O=C(O)c1csc(=NC(=O)C2CC2)n1Cc1ccc(-c2ccccc2-c2nnn[nH]2)cc1 [Compound No.242, 2-Cyclopropylcarbonylimino-3-[2'-(1H-tetrazol-5-yl)biphenyl-4-yl]methylthiazoline-4-carboxylic acid]	–	–	29.5	13
